#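 Grown in 96-well plates, cells were treated for 48 hours with each compound at five concentrations. Insufficient inhibition: endpoint recorded as highest concentration tested. The concentration for full growth arrest is given as TGI.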
# How the values were obtained:
# Test in all cases: NCI anticancer screen, dose series, 48 h
# 786-0 renal = test system: 786-0 renal
# KM12 colon = test system: KM12 colon
# NCI-H522 lung = test system: NCI-H522 lung
# NCI-H460 lung = test system: NCI-H460 lung
# RPMI-8226 leukemia = test system: RPMI-8226 leukemia
# SW-620 colon = test system: SW-620 colon
# SNB-75 CNS = test system: SNB-75 CNS
# K-562 leukemia = test system: K-562 leukemia
# SK-OV-3 ovarian = test system: SK-OV-3 ovarian
# SNB-19 CNS = test system: SNB-19 CNS
# KM20L2 colon = test system: KM20L2 colon
# CAKI-1 renal = test system: CAKI-1 renal
# HCT-15 colon = test system: HCT-15 colon
# MALME-3M melanoma = test system: MALME-3M melanoma
# XF 498 CNS = test system: XF 498 CNS
# COLO 205 colon = test system: COLO 205 colon
# MOLT-4 leukemia = test system: MOLT-4 leukemia
# LOX IMVI melanoma = test system: LOX IMVI melanoma
# SK-MEL-28 melanoma = test system: SK-MEL-28 melanoma
# SNB-78 CNS = test system: SNB-78 CNS
# DMS 114 small cell lung = test system: DMS 114 small cell lung
# M19-MEL melanoma = test system: M19-MEL melanoma
# IGROV1 ovarian = test system: IGROV1 ovarian
# UACC-62 melanoma = test system: UACC-62 melanoma
# U251 CNS = test system: U251 CNS
# HT29 colon = test system: HT29 colon
# M14 melanoma = test system: M14 melanoma
# LXFL 529 NSCLC = test system: LXFL 529 NSCLC
# SK-MEL-2 melanoma = test system: SK-MEL-2 melanoma
# A549 NSCLC = test system: A549 NSCLC
# OVCAR-5 ovarian = test system: OVCAR-5 ovarian
# OVCAR-4 ovarian = test system: OVCAR-4 ovarian
# A498 renal = test system: A498 renal
# NCI-H23 lung = test system: NCI-H23 lung
# HL-60(TB) leukemia = test system: HL-60(TB) leukemia
# CCRF-CEM leukemia = test system: CCRF-CEM leukemia
# TK-10 renal = test system: TK-10 renal
# DMS 273 small cell lung = test system: DMS 273 small cell lung
# SF-539 CNS = test system: SF-539 CNS
# HOP-62 NSCLC = test system: HOP-62 NSCLC
# SF-268 CNS = test system: SF-268 CNS
# EKVX NSCLC = test system: EKVX NSCLC
# SF-295 CNS = test system: SF-295 CNS
# HCT-116 colon = test system: HCT-116 colon
# SN12C renal = test system: SN12C renal
# UACC-257 melanoma = test system: UACC-257 melanoma
# UO-31 renal = test system: UO-31 renal
# HCC-2998 colon = test system: HCC-2998 colon
# OVCAR-8 ovarian = test system: OVCAR-8 ovarian
# DLD-1 colon = test system: DLD-1 colon
# SK-MEL-5 melanoma = test system: SK-MEL-5 melanoma
# OVCAR-3 ovarian = test system: OVCAR-3 ovarian
# ACHN renal = test system: ACHN renal
# SR leukemia = test system: SR leukemia
# RXF 393 renal = test system: RXF 393 renal
# HOP-92 NSCLC = test system: HOP-92 NSCLC
# NCI-H226 lung = test system: NCI-H226 lung
# HOP-18 NSCLC = test system: HOP-18 NSCLC
structure (smiles),measurement,setting,value
COc1ccc(CNc2nc3c(NC(C)=O)cc(C(F)(F)F)cc3nc2-c2ccccc2)cc1OC,TGI,786-0 renal,> 100 µM
same,TGI,KM12 colon,> 100 µM
same,TGI,NCI-H522 lung,23.5 µM
same,TGI,NCI-H460 lung,> 100 µM
same,TGI,RPMI-8226 leukemia,> 100 µM
same,TGI,SW-620 colon,> 100 µM
same,TGI,SNB-75 CNS,4.48 µM
same,TGI,K-562 leukemia,> 100 µM
same,TGI,SK-OV-3 ovarian,> 100 µM
same,TGI,SNB-19 CNS,> 100 µM
same,TGI,KM20L2 colon,> 100 µM
same,TGI,CAKI-1 renal,> 100 µM
same,TGI,HCT-15 colon,> 100 µM
same,TGI,MALME-3M melanoma,> 100 µM
same,TGI,XF 498 CNS,> 100 µM
same,TGI,COLO 205 colon,> 100 µM
same,TGI,MOLT-4 leukemia,> 100 µM
same,TGI,LOX IMVI melanoma,> 100 µM
same,TGI,SK-MEL-28 melanoma,> 100 µM
same,TGI,SNB-78 CNS,> 100 µM
same,TGI,DMS 114 small cell lung,> 100 µM
same,TGI,M19-MEL melanoma,> 100 µM
same,TGI,IGROV1 ovarian,> 100 µM
same,TGI,UACC-62 melanoma,> 100 µM
same,TGI,U251 CNS,> 100 µM
same,TGI,HT29 colon,> 100 µM
same,TGI,M14 melanoma,> 100 µM
same,TGI,LXFL 529 NSCLC,> 100 µM
same,TGI,SK-MEL-2 melanoma,> 100 µM
same,TGI,A549 NSCLC,> 100 µM
same,TGI,OVCAR-5 ovarian,> 100 µM
same,TGI,OVCAR-4 ovarian,95.7 µM
same,TGI,A498 renal,> 100 µM
same,TGI,NCI-H23 lung,> 100 µM
same,TGI,HL-60(TB) leukemia,> 100 µM
same,TGI,CCRF-CEM leukemia,> 100 µM
same,TGI,TK-10 renal,> 100 µM
same,TGI,DMS 273 small cell lung,> 100 µM
same,TGI,SF-539 CNS,> 100 µM
same,TGI,HOP-62 NSCLC,> 100 µM
same,TGI,SF-268 CNS,> 100 µM
same,TGI,EKVX NSCLC,> 100 µM
same,TGI,SF-295 CNS,> 100 µM
same,TGI,HCT-116 colon,> 100 µM
same,TGI,SN12C renal,> 100 µM
same,TGI,UACC-257 melanoma,> 100 µM
same,TGI,UO-31 renal,> 100 µM
same,TGI,HCC-2998 colon,> 100 µM
same,TGI,OVCAR-8 ovarian,> 100 µM
same,TGI,DLD-1 colon,> 100 µM
same,TGI,SK-MEL-5 melanoma,> 100 µM
same,TGI,OVCAR-3 ovarian,> 100 µM
CN(C)c1ccc(/C=N\N2C(=O)c3ccccc3C2=O)cc1,TGI,786-0 renal,> 100 µM
same,TGI,KM12 colon,> 100 µM
same,TGI,NCI-H460 lung,> 100 µM
same,TGI,RPMI-8226 leukemia,> 100 µM
same,TGI,SW-620 colon,> 100 µM
same,TGI,SNB-75 CNS,> 100 µM
same,TGI,K-562 leukemia,> 100 µM
same,TGI,ACHN renal,> 100 µM
same,TGI,SR leukemia,> 100 µM
same,TGI,SNB-19 CNS,> 100 µM
same,TGI,KM20L2 colon,> 100 µM
same,TGI,CAKI-1 renal,> 100 µM
same,TGI,HCT-15 colon,> 100 µM
same,TGI,MALME-3M melanoma,> 100 µM
same,TGI,XF 498 CNS,> 100 µM
same,TGI,RXF 393 renal,> 100 µM
same,TGI,MOLT-4 leukemia,> 100 µM
same,TGI,LOX IMVI melanoma,> 100 µM
same,TGI,SK-MEL-28 melanoma,> 100 µM
same,TGI,SNB-78 CNS,> 100 µM
same,TGI,DMS 114 small cell lung,> 100 µM
same,TGI,M19-MEL melanoma,> 100 µM
same,TGI,IGROV1 ovarian,> 100 µM
same,TGI,UACC-62 melanoma,> 100 µM
same,TGI,HT29 colon,> 100 µM
same,TGI,M14 melanoma,> 100 µM
same,TGI,LXFL 529 NSCLC,> 100 µM
same,TGI,SK-MEL-2 melanoma,> 100 µM
same,TGI,A549 NSCLC,> 100 µM
same,TGI,OVCAR-5 ovarian,> 100 µM
same,TGI,OVCAR-4 ovarian,> 100 µM
same,TGI,A498 renal,> 100 µM
same,TGI,NCI-H23 lung,> 100 µM
same,TGI,HL-60(TB) leukemia,> 100 µM
same,TGI,CCRF-CEM leukemia,> 100 µM
same,TGI,TK-10 renal,> 100 µM
same,TGI,DMS 273 small cell lung,> 100 µM
same,TGI,SF-539 CNS,> 100 µM
same,TGI,HOP-62 NSCLC,> 100 µM
same,TGI,SF-268 CNS,> 100 µM
same,TGI,EKVX NSCLC,> 100 µM
same,TGI,SF-295 CNS,> 100 µM
same,TGI,HCT-116 colon,> 100 µM
same,TGI,HOP-92 NSCLC,> 100 µM
same,TGI,NCI-H226 lung,> 100 µM
same,TGI,SN12C renal,> 100 µM
same,TGI,UACC-257 melanoma,> 100 µM
same,TGI,UO-31 renal,> 100 µM
same,TGI,HCC-2998 colon,> 100 µM
same,TGI,HOP-18 NSCLC,> 100 µM
same,TGI,OVCAR-8 ovarian,> 100 µM
same,TGI,DLD-1 colon,> 100 µM
same,TGI,SK-MEL-5 melanoma,> 100 µM
same,TGI,OVCAR-3 ovarian,> 100 µM
CSc1nc2[nH]c(=O)c(C)nc2c(=O)[nH]1,TGI,786-0 renal,> 100 µM
same,TGI,KM12 colon,> 100 µM
same,TGI,NCI-H522 lung,> 100 µM
same,TGI,NCI-H460 lung,> 100 µM
same,TGI,RPMI-8226 leukemia,> 100 µM
same,TGI,SW-620 colon,> 100 µM
same,TGI,SNB-75 CNS,> 100 µM
same,TGI,K-562 leukemia,> 100 µM
same,TGI,ACHN renal,> 100 µM
same,TGI,SR leukemia,> 100 µM
same,TGI,SK-OV-3 ovarian,> 100 µM
same,TGI,SNB-19 CNS,> 100 µM
same,TGI,KM20L2 colon,> 100 µM
same,TGI,CAKI-1 renal,> 100 µM
same,TGI,HCT-15 colon,> 100 µM
same,TGI,MALME-3M melanoma,> 100 µM
same,TGI,XF 498 CNS,> 100 µM
same,TGI,RXF 393 renal,> 100 µM
same,TGI,COLO 205 colon,> 100 µM
same,TGI,MOLT-4 leukemia,> 100 µM
same,TGI,LOX IMVI melanoma,> 100 µM
same,TGI,SK-MEL-28 melanoma,> 100 µM
same,TGI,DMS 114 small cell lung,> 100 µM
same,TGI,M19-MEL melanoma,> 100 µM
same,TGI,IGROV1 ovarian,> 100 µM
same,TGI,UACC-62 melanoma,> 100 µM
same,TGI,U251 CNS,> 100 µM
same,TGI,HT29 colon,> 100 µM
same,TGI,M14 melanoma,> 100 µM
same,TGI,LXFL 529 NSCLC,> 100 µM
same,TGI,SK-MEL-2 melanoma,> 100 µM
same,TGI,A549 NSCLC,> 100 µM
same,TGI,OVCAR-5 ovarian,> 100 µM
same,TGI,OVCAR-4 ovarian,> 100 µM
same,TGI,A498 renal,> 100 µM
same,TGI,NCI-H23 lung,> 100 µM
same,TGI,HL-60(TB) leukemia,> 100 µM
same,TGI,CCRF-CEM leukemia,> 100 µM
same,TGI,TK-10 renal,> 100 µM
same,TGI,DMS 273 small cell lung,> 100 µM
same,TGI,HOP-62 NSCLC,> 100 µM
same,TGI,SF-268 CNS,> 100 µM
same,TGI,EKVX NSCLC,> 100 µM
same,TGI,SF-295 CNS,> 100 µM
same,TGI,HCT-116 colon,> 100 µM
same,TGI,HOP-92 NSCLC,> 100 µM
same,TGI,SN12C renal,> 100 µM
same,TGI,UACC-257 melanoma,> 100 µM
same,TGI,UO-31 renal,> 100 µM
same,TGI,HCC-2998 colon,> 100 µM
same,TGI,OVCAR-8 ovarian,> 100 µM
same,TGI,DLD-1 colon,> 100 µM
same,TGI,SK-MEL-5 melanoma,> 100 µM
same,TGI,OVCAR-3 ovarian,> 100 µM

# From PubChem BioAssay (NCI)
